In PMC6686156, “Discovery of Sustainable Drugs for Neglected Tropical Diseases: Cashew Nut Shell Liquid (CNSL)‐Based Hybrids Target Mitochondrial Function and ATP Production in Trypanosoma brucei” (Chemmedchem, 2019):
Like-named read-outs stand apart in the source and are kept apart here.

Legend:
[1] = system: T. b. brucei 427WT bloodstream trypomastigotes; test: microbe, parasite or virus in culture; assay type: cell-based, Trypanosoma brucei brucei; settings: for EC50: Trypanosoma brucei; for SI, selectivity index=EC50(HFF)/EC50(T. b. b. WT): HFF versus T. b. b. 427WT; for RF, resistance factor (+ 5 mM glycerol versus control): Table 2
Description: (§1) Organisms and culture media: Only bloodstream trypomastigotes of T. b. brucei were used throughout this study. […] Parasites were cultured in vented flasks at 37 °C and 5 % CO2 atmosphere and they were passaged every 3 days. Bloodstream forms of T. congolense savannah‐type strain IL3000 were cultured in basal MEM medium, supplemented by 10 % fresh goat serum, 14 μL of β‐mercaptoethanol, 800 μL of 200 mM glutamine solution, and 10 mL of penicillin/streptomycin solution per liter of medium (pH 7.3).48 T. congolense were cultured in six‐well plates at 34 °C and 5 % CO2.
(§2) In brief, the assays were performed in 96‐well plates with 2×10^5 cells per well for T. b. brucei or 5×10^5 cells per well for T. congolense, in their respective culture media. First, 200 μL of test compounds’ solutions (400 μM, in T. brucei or T. congolense medium as appropriate) was added to the first well of each 12‐well row, from which doubling dilutions were conducted over one row per test compound. […] Fluorescence was detected using a FLUOstar Optima (BMG Labtech, Durham, NC, USA) at wavelength of 540 nm (excitation), 590 nm (emission). EC50 values were calculated by nonlinear regression using an equation for a sigmoidal dose–response curve with variable slope using Prism 5.0 (GraphPad Software Inc., San Diego, CA, USA).

T. brucei GAPDH = T. brucei GAPDH (Trypanosoma brucei brucei, UniProt P22512); test: Inhibition of T. brucei GAPDH; assay type: biochemical; settings: fixed concentration of 10 μM; data not shown; read-out: decrease of GAPDH activity
Chain of T. brucei GAPDH (P22512 whole entry): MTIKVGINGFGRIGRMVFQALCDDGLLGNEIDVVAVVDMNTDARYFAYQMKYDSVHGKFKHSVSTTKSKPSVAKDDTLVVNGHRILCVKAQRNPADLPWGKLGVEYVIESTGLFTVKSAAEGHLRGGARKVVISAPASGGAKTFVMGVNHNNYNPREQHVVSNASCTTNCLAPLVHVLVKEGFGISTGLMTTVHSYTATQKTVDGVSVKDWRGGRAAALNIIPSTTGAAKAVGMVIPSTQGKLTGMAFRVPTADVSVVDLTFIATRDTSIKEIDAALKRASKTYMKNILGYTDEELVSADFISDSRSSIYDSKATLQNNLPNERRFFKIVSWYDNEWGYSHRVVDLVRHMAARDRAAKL
Excerpt: […]. […] Limitations of solubility prevented us from testing the series at higher concentrations. However, it must be noted that we cannot exclude the possibility of a low‐affinity inhibition of GAPDH contributing to the trypanocidal effect, as compounds may accumulate to relatively high concentrations within the parasite.

T. b. brucei B48 = test: microbe, parasite or virus in culture; assay type: cell-based, Trypanosoma brucei brucei; settings: for RF, resistance factor relative to WT (B48): B48 versus 427WT; for EC50: Trypanosoma brucei, read-out: EC50 T. b. b. B48
Description: as §1, §2

[2] = system: T. b. brucei aqp2/aqp3‐KO; test: microbe, parasite or virus in culture; assay type: cell-based, Trypanosoma brucei brucei; settings: for EC50: Trypanosoma brucei, read-out: EC50 T. b. b. aqp2/aq3‐KO; for RF, resistance factor relative to WT (aqp2/aqp3-KO): aqp2/aqp3-KO versus 427WT
Description: as §1, §2

[3] = Cytotoxicity assay on human foreskin fibroblast (HFF), resazurin; assay type: cell-based; settings: human foreskin fibroblast (HFF) cells, tested up to 200 μM, read-out: HFF cytotoxic activity (EC50)
Description: Cytotoxicity assay on human foreskin fibroblast (HFF): Toxicity of test compounds to mammalian cells was carried out using the resazurin assay previously described31 with slight modifications as follows. HFF cells were grown in a culture medium containing 500 mL of Dulbecco's modified Eagle's medium (DMEM; Sigma), 50 mL newborn calf serum (NBCS; Gibco), 5 mL penicillin/streptomycin (Gibco), and 5 mL of L‐Glutamax ([…], Gibco), at 37 °C and 5 % CO2 in vented flasks and passaged at 80–85 % of confluence. For the cytotoxicity assay, cells were suspended at 3×10^5 cells mL^−1 and 100 μL aliquots were added to each well of a 96‐well plate. The plate was incubated at 37 °C and 5 % CO2 for 24 h to allow cell adhesion. Serial test compounds dilution was performed in a different 96‐well plate and 100 μL of each dilution was transferred to each well containing cells, resulting in exposure of cells to 200–0.2 μM of test compound. Phenylarsine oxide (Sigma–Aldrich) was used as positive control and drug‐free incubation as negative control. The plates were incubated at 37 °C and 5 % CO2 for an additional 30 h, at which point 10 μL of resazurin solution ([…] in PBS) was added, followed by a final incubation for 24 h. The plates were read and the data analyzed as described above for the trypanosome assay.

[4] = system: T. b. brucei 427WT trypomastigotes; test: Growth curve / time-to-kill determination; assay type: cell-based, Trypanosoma brucei brucei; settings: 1× EC50; for time to sterilize the culture: 427WT seeded at 1×10^5 cells/mL
Description: To determine whether 18–22 inhibited growth or cell division rather than causing cell death of T. b. brucei, cell growth curves were performed by treating 427WT trypomastigotes with concentrations corresponding to 0.5×, 1×, and 2× the EC50 value, using untreated cells as a control. Incubation with test compounds at half the EC50 (Figure 3 A) caused mostly some delayed growth phenotype, with rates increasing after 10 or 20 h. […] At double the concentration (Figure 3 C), all the hybrids cleared the culture between the 4 h and 8 h time points, with the cell populations rapidly declining between 2 and 4 h.
Untreated parasites, used as control, were grown in parallel. The cells were counted by using hemocytometer cell counter (cell count/mL×10^4) at 0, 2, 4, 8, 12, 24, 28, 32, 36, 48 h of incubation. Each experiment was performed as two independent replicates, and each sample was counted at least twice.

T. congolense IL3000 WT = test: In vitro drug susceptibility assay (resazurin), T. congolense; assay type: cell-based; settings: bloodstream forms, read-out: EC50 T. c. IL3000 WT
Description: as §1, §2

[5] = 72 h, bloodstream trypomastigotes, resazurin, 48 h + 24 h, n=4, read-out: EC50 T. b. b. 427WT
[6] = Table 2, 5 mM glycerol in medium, average±SEM of three, read-out: EC50 s427WT + 5 mM glycerol
[7] = Table 2, no glycerol, average±SEM of three, read-out: EC50 Control s427WT

CCCCCCCCCCCCCCCc1cccc(OC2=CC(=O)c3ccccc3C2=O)c1C(=O)OC [Compound 8, Methyl 2‐((1,4‐dioxo‐1,4‐dihydronaphthalen‐2‐yl)oxy)‐6‐pentadecylbenzoate]
EC50 [1, 5]: > 200 µM
inhibition at 10 µM (T. brucei GAPDH): < 15%

CCCCCCCCCCCCCCCc1cccc(OC2=CC(=O)c3cccc(OC)c3C2=O)c1C(=O)OC [Compound 9, Methyl 2‐((8‐methoxy‐1,4‐dioxo‐1,4‐dihydronaphthalen‐2‐yl)oxy)‐6 pentadecylbenzoate]
EC50 [1, 5]: > 200 µM
inhibition at 10 µM (T. brucei GAPDH): < 15%

CCCCCCCCCCCCCCCc1cccc(OC2=CC(=O)c3c(OC)cccc3C2=O)c1C(=O)OC [Compound 10, Methyl 2‐((5‐methoxy‐1,4‐dioxo‐1,4‐dihydronaphthalen‐2‐yl)oxy)‐6‐pentadecylbenzoate]
EC50 [1, 5]: > 200 µM
inhibition at 10 µM (T. brucei GAPDH): < 15%

CCCCCCCCCCCCCCCc1cccc(OC2=CC(=O)c3cccc(O)c3C2=O)c1C(=O)OC [Compound 11, Methyl 2‐((8‐hydroxy‐1,4‐dioxo‐1,4‐dihydronaphthalen‐2‐yl)oxy)‐6‐pentadecylbenzoate]
EC50 [1, 5]: > 200 µM
inhibition at 10 µM (T. brucei GAPDH): < 15%

CCCCCCCCCCCCCCCc1cccc(OC2=CC(=O)c3c(O)cccc3C2=O)c1C(=O)OC [Compound 12, Methyl 2‐((5‐hydroxy‐1,4‐dioxo‐1,4‐dihydronaphthalen‐2‐yl)oxy)‐6‐pentadecylbenzoate]
EC50 [1, 5]: > 200 µM
inhibition at 10 µM (T. brucei GAPDH): < 15%

CCCCCCCCCCCCCCCc1cccc(OC2=CC(=O)c3ccccc3C2=O)c1 [Compound 13, 2‐(3‐Pentadecylphenoxy)naphthalene‐1,4‐dione]
EC50 [1, 5]: > 200 µM
inhibition at 10 µM (T. brucei GAPDH): < 15%

CCCCCCCCCCCCCCCc1cccc(OC2=CC(=O)c3cccc(OC)c3C2=O)c1 [Compound 14, 8‐Methoxy‐2‐(3‐pentadecylphenoxy)naphthalene‐1,4‐dione]
EC50 [1, 5]: > 200 µM
inhibition at 10 µM (T. brucei GAPDH): < 15%

CCCCCCCCCCCCCCCc1cccc(OC2=CC(=O)c3c(OC)cccc3C2=O)c1 [Compound 15, 5‐Methoxy‐2‐(3‐pentadecylphenoxy)naphthalene‐1,4‐dione]
EC50 [1, 5]: > 200 µM
inhibition at 10 µM (T. brucei GAPDH): < 15%

CCCCCCCCCCCCCCCc1cccc(OC2=CC(=O)c3cccc(O)c3C2=O)c1 [Compound 16, 8‐Hydroxy‐2‐(3‐pentadecylphenoxy)naphthalene‐1,4‐dione]
EC50 [1, 5]: > 200 µM
inhibition at 10 µM (T. brucei GAPDH): < 15%

CCCCCCCCCCCCCCCc1cccc(OC2=CC(=O)c3c(O)cccc3C2=O)c1 [Compound 17, 5‐Hydroxy‐2‐(3‐pentadecylphenoxy)naphthalene‐1,4‐dione]
EC50 [1, 5]: > 200 µM
inhibition at 10 µM (T. brucei GAPDH): < 15%

O=C1C=C(Oc2cccc(CCCCCCCCO)c2)C(=O)c2ccccc21 [Compound 18, 2‐(3‐(8‐Hydroxyoctyl)phenoxy)naphthalene‐1,4‐dione]
SI, selectivity index=EC50(HFF)/EC50(T. b. b. WT) [1]: >21.98
RF, resistance factor (+ 5 mM glycerol versus control) [1]: 1.04
EC50 [1, 5]: 9.1 ± 1.4 µM
EC50 [1, 6]: 31.2 ± 0.6 µM
EC50 [1, 7]: 30 ± 0.08 µM
RF, resistance factor relative to WT (B48) (T. b. brucei B48): 0.95
EC50 (T. b. brucei B48): 8.6 ± 2.4 µM
EC50 [2]: 10.1 ± 2.2 µM
RF, resistance factor relative to WT (aqp2/aqp3-KO) [2]: 1.1
EC50 at 54 h [3]: > 200 µM
inhibition at 10 µM (T. brucei GAPDH): < 15%
time to sterilize the culture [4]: 2 h

COc1cccc2c1C(=O)C(Oc1cccc(CCCCCCCCO)c1)=CC2=O [Compound 19, 2‐(3‐(8‐Hydroxyoctyl)phenoxy)‐8‐methoxynaphthalene‐1,4‐dione]
SI, selectivity index=EC50(HFF)/EC50(T. b. b. WT) [1]: >13.3
RF, resistance factor (+ 5 mM glycerol versus control) [1]: 0.97
EC50 [1, 5]: 15 ± 1.3 µM
EC50 [1, 6]: 16.3 ± 0.4 µM
EC50 [1, 7]: 16.8 ± 0.06 µM
RF, resistance factor relative to WT (B48) (T. b. brucei B48): 0.98
EC50 (T. b. brucei B48): 14.6 ± 1.7 µM
EC50 [2]: 17.7 ± 1.5 µM
RF, resistance factor relative to WT (aqp2/aqp3-KO) [2]: 1.2
EC50 at 54 h [3]: > 200 µM
inhibition at 10 µM (T. brucei GAPDH): < 15%
time to sterilize the culture [4]: 8 h

O=C1C=C(Oc2cccc(CCCCCCCCO)c2)C(=O)c2c(O)cccc21 [Compound 21, 8‐Hydroxy‐2‐(3‐(8‐hydroxyoctyl)phenoxy)naphthalene‐1,4‐dione]
SI, selectivity index=EC50(HFF)/EC50(T. b. b. WT) [1]: >5
EC50 [1, 5]: 40.5 ± 4.9 µM
RF, resistance factor relative to WT (B48) (T. b. brucei B48): 0.91
EC50 (T. b. brucei B48): 36.9 ± 5.3 µM
EC50 [2]: 46.7 ± 7.7 µM
RF, resistance factor relative to WT (aqp2/aqp3-KO) [2]: 1.2
EC50 at 54 h [3]: > 200 µM
inhibition at 10 µM (T. brucei GAPDH): < 15%
effect on cell growth ([4]; over 48 h): decreased the growth rate substantially, with a nearly trypanostatic effect over the first 12 h

N=C(N)c1ccc(N=NNc2ccc(C(=N)N)cc2)cc1 [DA, Diminazene aceturate, reference compound]
EC50 (T. congolense IL3000 WT): 0.17 ± 0.0003 µM

N=C(N)c1ccc(OCCCCCOc2ccc(C(=N)N)cc2)cc1 [PMD, Pentamidine, reference compound]
EC50 [1, 5]: 0.0093 ± 0.0001 µM
RF, resistance factor relative to WT (B48) (T. b. brucei B48): 339
EC50 (T. b. brucei B48): 3.1 ± 0.7 µM
EC50 [2]: 0.2 ± 0.01 µM
RF, resistance factor relative to WT (aqp2/aqp3-KO) [2]: 22.0
